Laboratory results taken from ChEMBL document CHEMBL3046319, “PCR-RFLP detection of the E198A mutation conferring resistance to benzimidazoles in field isolates of Monilinia laxa from Greece” (Crop Prot, 2012).
Values after ≈ are worked out from the molar mass of the structure shown. Active and inactive are the calls of the source. The calls are words filed in the database; no cut-off is given here.

Tests used:
Monilinia laxa [1] = test: Fungicidal activity against Monilinia laxa isolate MLP2 assessed as mycelial growth at 1 ug/ml at 25 degC after 4 days; assay type: functional
Monilinia laxa [2] = test: Fungicidal activity against Monilinia laxa isolate KX4 assessed as reduction in mycelial growth rate at 1 to 10 ug/ml at 31 degC after 5 days; assay type: functional, organism-based
Monilinia laxa [3] = test: Fungicidal activity against Monilinia laxa isolate MLC3 assessed as reduction in mycelial growth rate at 25 degC after 4 days; assay type: functional, organism-based; conditions: isolate MLC3, 96 h
Monilinia laxa [4] = test: Fungicidal activity against Monilinia laxa isolate MLC3 assessed as reduction in mycelial growth rate at 1 to 10 ug/ml at 25 to 28 degC; assay type: functional, organism-based
Monilinia laxa [5] = test: Fungicidal activity against Monilinia laxa isolate MLBO4 assessed as reduction in mycelial growth rate at 1 to 10 ug/ml at 31 degC after 5 days; assay type: functional, organism-based
Monilinia laxa [6] = test: Fungicidal activity against Monilinia laxa isolate MLC2 assessed as reduction in mycelial growth rate at 1 to 10 ug/ml at 31 degC after 5 days; assay type: functional, organism-based
Monilinia laxa [7] = test: Fungicidal activity against Monilinia laxa isolate MLG1 assessed as mean mycelial colony diameter at 25 degC after 4 days; assay type: functional
Monilinia laxa [8] = test: Fungicidal activity against Monilinia laxa isolate MLX2 assessed as reduction in mycelial growth rate at 1 to 10 ug/ml at 31 degC after 5 days; assay type: functional, organism-based
Monilinia laxa [9] = test: Fungicidal activity against Monilinia laxa isolate MLC2 assessed as mycelial growth at 1 ug/ml at 25 degC after 4 days; assay type: functional
Monilinia laxa [10] = test: Fungicidal activity against Monilinia laxa isolate MLC3 assessed as reduction in mycelial growth rate at 1 to 10 ug/ml at 31 degC after 5 days; assay type: functional, organism-based
Monilinia laxa [11] = test: Fungicidal activity against Monilinia laxa isolate MLBO2 assessed as mean number of conidia produced in the colony at 25 degC after 12 days by haemocytometer; assay type: functional
Monilinia laxa [12] = test: Fungicidal activity against Monilinia laxa isolate MLK1 assessed as mean number of conidia produced in the colony at 25 degC after 12 days by haemocytometer; assay type: functional
Monilinia laxa [13] = test: Fungicidal activity against Monilinia laxa isolate MLX1 assessed as mean number of conidia produced in the colony at 25 degC after 12 days by haemocytometer; assay type: functional
Monilinia laxa [14] = test: Fungicidal activity against Monilinia laxa isolate MLP2 assessed as virulence in prune fruits assessed as virulence treated 10 min prior to mycelial inoculation at 24 degC after 10 days relative to isolate MLX1by pathogenicity bioassay; assay type: functional
Monilinia laxa [15] = test: Fungicidal activity against Monilinia laxa isolate MLK1 assessed as reduction in mycelial growth rate at 1 to 10 ug/ml at 31 degC after 5 days; assay type: functional, organism-based
Monilinia laxa [16] = test: Fungicidal activity against Monilinia laxa isolate MLG2 assessed as reduction in mycelial growth rate at 25 degC after 4 days; assay type: functional, organism-based; conditions: isolate MLG2, 96 h
Monilinia laxa [17] = test: Fungicidal activity against Monilinia laxa isolate KX5 assessed as reduction in mycelial growth rate at 1 to 10 ug/ml at 31 degC after 5 days; assay type: functional, organism-based
Monilinia laxa [18] = test: Fungicidal activity against Monilinia laxa isolate MLC4 assessed as reduction in mycelial growth rate at 25 degC after 4 days; assay type: functional, organism-based; conditions: isolate MLC4, 96 h
Monilinia laxa [19] = test: Fungicidal activity against Monilinia laxa isolate MLK4A assessed as reduction in mycelial growth rate at 1 to 10 ug/ml at 31 degC after 5 days; assay type: functional, organism-based
Monilinia laxa [20] = test: Fungicidal activity against Monilinia laxa isolate MLX1 assessed as reduction in mycelial growth rate at 1 to 10 ug/ml at 25 to 28 degC; assay type: functional, organism-based
Monilinia laxa [21] = test: Fungicidal activity against Monilinia laxa isolate MLC1 assessed as reduction in mycelial growth rate at 25 degC after 4 days; assay type: functional, organism-based; conditions: isolate MLC1, 96 h
Monilinia laxa [22] = test: Fungicidal activity against Monilinia laxa isolate MLK6 assessed as reduction in mycelial growth rate at 25 degC after 4 days; assay type: functional, organism-based; conditions: isolate MLK6, 96 h
Monilinia laxa [23] = test: Fungicidal activity against Monilinia laxa isolate MLC2 assessed as reduction in mycelial growth rate at 1 to 10 ug/ml at 25 to 28 degC; assay type: functional, organism-based
Monilinia laxa [24] = test: Fungicidal activity against Monilinia laxa isolate MLC2 assessed as reduction in mycelial growth rate at 25 degC after 4 days; assay type: functional, organism-based; conditions: isolate MLC2, 96 h
Monilinia laxa [25] = test: Fungicidal activity against Monilinia laxa isolate MLG2 assessed as reduction in mycelial growth rate at 1 to 10 ug/ml at 31 degC after 5 days; assay type: functional, organism-based
Monilinia laxa [26] = test: Fungicidal activity against Monilinia laxa isolate MLG5 assessed as reduction in mycelial growth rate at 25 degC after 4 days; assay type: functional, organism-based; conditions: isolate MLG5, 96 h
Monilinia laxa [27] = test: Fungicidal activity against Monilinia laxa isolate MLK9 assessed as reduction in mycelial growth rate at 25 degC after 4 days; assay type: functional, organism-based; conditions: isolate MLK9, 96 h
Monilinia laxa [28] = test: Fungicidal activity against Monilinia laxa isolate MLA1 assessed as reduction in mycelial growth rate at 1 to 10 ug/ml at 31 degC after 5 days; assay type: functional, organism-based
Monilinia laxa [29] = test: Fungicidal activity against Monilinia laxa isolate MLA1 assessed as virulence in prune fruits assessed as virulence treated 10 min prior to mycelial inoculation at 24 degC after 10 days relative to isolate MLX1by pathogenicity bioassay; assay type: functional
Monilinia laxa [30] = test: Fungicidal activity against Monilinia laxa isolate MLP4 assessed as mycelial growth at 1 ug/ml at 25 degC after 4 days; assay type: functional
Monilinia laxa [31] = test: Fungicidal activity against Monilinia laxa isolate MLBO2 assessed as reduction in mycelial growth rate at 25 degC after 4 days; assay type: functional, organism-based; conditions: isolate MLBO2, 96 h
Monilinia laxa [32] = test: Fungicidal activity against Monilinia laxa isolate MLX2 assessed as reduction in mycelial growth rate at 25 degC after 4 days; assay type: functional, organism-based; conditions: isolate MLX2, 96 h
Monilinia laxa [33] = test: Fungicidal activity against Monilinia laxa isolate MLBO1 assessed as reduction in mycelial growth rate at 1 to 10 ug/ml at 31 degC after 5 days; assay type: functional, organism-based
Monilinia laxa [34] = test: Fungicidal activity against Monilinia laxa isolate MLX3 assessed as reduction in mycelial growth rate at 1 to 10 ug/ml at 31 degC after 5 days; assay type: functional, organism-based
Monilinia laxa [35] = test: Fungicidal activity against Monilinia laxa isolate MLK4 assessed as reduction in mycelial growth rate at 1 to 10 ug/ml at 28 degC after 8 days; assay type: functional, organism-based
Monilinia laxa [36] = test: Fungicidal activity against Monilinia laxa isolate MLX4 assessed as reduction in mycelial growth rate at 25 degC after 4 days; assay type: functional, organism-based; conditions: isolate MLX4, 96 h
Monilinia laxa [37] = test: Fungicidal activity against Monilinia laxa isolate MLK2 assessed as reduction in mycelial growth rate at 1 to 10 ug/ml at 25 to 28 degC; assay type: functional, organism-based
Monilinia laxa [38] = test: Fungicidal activity against Monilinia laxa isolate MLK5 assessed as reduction in mycelial growth rate at 1 to 10 ug/ml at 25 to 28 degC; assay type: functional, organism-based
Monilinia laxa [39] = test: Fungicidal activity against Monilinia laxa isolate MLB1 assessed as reduction in mycelial growth rate at 25 degC after 4 days; assay type: functional, organism-based; conditions: isolate MLB1, 96 h
Monilinia laxa [40] = test: Fungicidal activity against Monilinia laxa isolate MLX5 assessed as virulence in prune fruits assessed as virulence treated 10 min prior to mycelial inoculation at 24 degC after 10 days relative to isolate MLX1by pathogenicity bioassay; assay type: functional
Monilinia laxa [41] = test: Fungicidal activity against Monilinia laxa isolate MLC5 assessed as reduction in mycelial growth rate at 1 to 10 ug/ml at 31 degC after 5 days; assay type: functional, organism-based

COC(=O)Nc1nc2ccccc2[nH]1 [CARBENDAZIM]
Activity (Monilinia laxa [1]): 0% | inhibition (Monilinia laxa [2]): Active | EC50 (Monilinia laxa [3]): > 50 µg/mL | inhibition (Monilinia laxa [4]): inactive | inhibition (Monilinia laxa [5]): Active | inhibition (Monilinia laxa [6]): Active | Activity (Monilinia laxa [7]): 25.55 mm | inhibition (Monilinia laxa [8]): Active | Activity (Monilinia laxa [9]): 98.28% | inhibition (Monilinia laxa [10]): Active | Activity (Monilinia laxa [11]): 3.54 /cm2 | Activity (Monilinia laxa [12]): 6.55 /cm2 | Activity (Monilinia laxa [13]): 4 /cm2 | Activity (Monilinia laxa [14]): 87.37% | inhibition (Monilinia laxa [15]): Active | EC50 (Monilinia laxa [16]): 0.08 µg/mL (≈ 0.418 µM) | inhibition (Monilinia laxa [17]): Active | EC50 (Monilinia laxa [18]): 0.09 µg/mL (≈ 0.471 µM) | inhibition (Monilinia laxa [19]): Active | inhibition (Monilinia laxa [20]): inactive | EC50 (Monilinia laxa [21]): 0.03 µg/mL (≈ 0.157 µM) | EC50 (Monilinia laxa [22]): > 50 µg/mL | inhibition (Monilinia laxa [23]): inactive | EC50 (Monilinia laxa [24]): > 50 µg/mL | inhibition (Monilinia laxa [25]): Active | EC50 (Monilinia laxa [26]): 0.09 µg/mL (≈ 0.471 µM) | EC50 (Monilinia laxa [27]): 0.08 µg/mL (≈ 0.418 µM) | inhibition (Monilinia laxa [28]): Active | Activity (Monilinia laxa [29]): 90.33% | Activity (Monilinia laxa [30]): 94.44% | EC50 (Monilinia laxa [31]): 0.18 µg/mL (≈ 0.941 µM) | EC50 (Monilinia laxa [32]): 0.12 µg/mL (≈ 0.628 µM) | inhibition (Monilinia laxa [33]): Active | inhibition (Monilinia laxa [34]): Active | inhibition (Monilinia laxa [35]): inactive | EC50 (Monilinia laxa [36]): 0.11 µg/mL (≈ 0.575 µM) | inhibition (Monilinia laxa [37]): inactive | inhibition (Monilinia laxa [38]): inactive | EC50 (Monilinia laxa [39]): > 50 µg/mL | Activity (Monilinia laxa [40]): 96.29% | inhibition (Monilinia laxa [41]): Active
